We go through 9 compounds from US10787441B2, “Hepatitis C virus inhibitors” (priority 2016, dated 2020).

pIC50: −log10 of the molar value. Where two headings read alike, the source gives them in different places.

Common to all, as to assay type: cell-based, Hepatitis C virus
Test [1] has as its system HCV genotype 1a H77 strain subgenomic luciferase replicon. The experiment in a line: HCV replicon assay, genotype 1a. Particulars: for IC50: Hepatitis C virus, read-out: 1a IC50 (nM), HCV genotype 1a; for pIC50: read-out: 1a IC50, HCV genotype 1a. How it is done:
(§1) The HCV luciferase replicon assay measures the ability of a test compound to inhibit HCV replication in cell culture after 3 days of treatment in a human hepatoma cell line (Huh-7) bearing an HCV replicon containing a luciferase-neomycin phosphotransferase fusion gene. The inhibition of HCV replication was measured by quantification of luciferase protein expression. Briefly, Huh-7 cells containing either the HCV genotype 1a H77 strain or genotype 1b Con1 strain subgenomic luciferase replicon (H1a-luc or Zluc, respectively) were grown in DMEM containing glucose, L-glutamine and sodium pyruvate, 10% fetal bovine serum (FBS), 100 IU/mL penicillin, 100 μg/mL streptomycin, 2 mM GlutaMAX, non-essential amino acids and 0.25 (H1a-luc) or 0.5 (Zluc) mg/mL G418. GlutaMAX was obtained from Invitrogen, Corp.; all other media reagents were obtained from Mediatech, Inc. For dose-response testing, the cells were seeded in 96-well plates at 1×10^4 (H1a-luc) or 7.5×10^3 (Zluc) cells/well in a volume of 50 μL, and incubated at 37° C./5% CO2. Three hours after plating, 50 μL of ten 5-fold serial dilutions of compound were added, and cell cultures were incubated at 37° C./5% CO2 for 72 hours. In all cases, Huh-7 cells lacking the HCV replicon served as negative control. To assess luciferase expression, the media/compound was removed from the plates and ONE-glo Luciferase assay reagent (Promega) was added to each well. The assay plates were shaken for 3 minutes at room temperature and luciferase activity for each well was measured with a 1 sec read time on the Victor^3V multilabel counter using a 700 nm cut-off filter (Perkin Elmer). EC50 values were calculated from dose response curves from the resulting best-fit equations determined by Microsoft Excel and XLfit 4.1 software.

For test [2], the system named is HCV genotype 3a NS5A within the 1b-replicon. As to the kind of experiment: HCV replicon assay, genotype 3a (NS5A intergenotypic stable cell line). Particulars: for IC50: Hepatitis C virus, read-out: 3a IC50 (nM), HCV genotype 3a; for pIC50: read-out: 3a IC50, HCV genotype 3a.
Text: The nucleotide sequences of the NS5A region of genotype 2a (GenBank Accession # AB047639), genotype 3a (GenBank Accession # D17763), and genotype 4a (GenBank Accession # DQ418788) were synthesized by an outside vendor. The NS5A region of each of these genotypes included the first 11 amino acids of the protease recognition sequence of genotype 1b, as well as the last 10 amino acids of genotype 1b. The NS5A gene cassettes were excised with site specific restriction endonucleases and ligated into a ZS11-luciferase genotype 1b backbone (backbone contains the genotype 1b NS3 protease, NS4a, NS4b, and NS5b coding regions) with similarly cut restriction enzyme sites. Thus, the newly constructed plasmid contains a genotype 2a-, 3a- or 4a-specific NS5A gene within the 1b-replicon.
These new intergenotypic plasmids were used to establish stable cell lines. RNA was generated from the NS5A intergenotypic plasmids and used in conjunction with a lipofectin reagent to transfect a cured Huh7 cell line. Transfected cells were selected for with G418. After selection has occurred the stable cell lines were propagated, tested for luciferase activity, and RT-PCR with genotype specific primers (either 1a, 2a, 3a, or 4a). Stable cell lines containing the intergenotypic replicon were then fully sequenced and analyzed for proper expression of NS3, NS5A and NS5B proteins.
Drug titration analysis was performed using the luciferase replicon assay described herein.
as §1

Test [3] concerns HCV 1aY93H mutant replicon. As to the kind of experiment: HCV replicon assay, genotype 1a Y93H mutant. Particulars: for IC50: Hepatitis C virus, read-out: 1aY93H IC50 (nM), HCV genotype 1a, Y93H mutant; for pIC50: read-out: 1aY93H IC50, HCV genotype 1a, Y93H mutant. How it is done:
General procedure: The luciferase replicon transient transfection assay measures the ability of a test compound to inhibit the replication of a transiently-transfected HCV luciferase-bearing wild-type or mutant replicon in cured human hepatoma cells (Huh7.5). The inhibition of HCV replication was measured by quantification of luciferase protein expression. This assay has been validated using a panel of genotype 1a and 1b replicons bearing mutations known to be associated with resistance to BMS-790052. Briefly, subconfluent Huh7.5 cells were electroporated with 10 μg of wild-type or mutant luciferase-bearing HCV replicon RNA. The cells were then seeded in 96-well opaque white plates at 3×10^4 cells/well in 150 μL/well and incubated for 4 hrs at 37° C./5% CO2. Ten 1:5 serial dilutions of each test compound were made in media (DMEM containing glucose, L-glutamine and sodium pyruvate, 10% fetal bovine serum, 100 IU/mL penicillin, 100 μg/mL streptomycin, 2 mM GlutaMAX, and 1×MEM non-essential amino acids (Mediatech, Inc. and Invitrogen Corp.)) at concentrations that were 4× higher than the final concentrations to be tested and 50 μL/well was added to the transfected cells. Untreated, mock-transfected cells served as a negative control of luciferase expression. The plates were incubated at 37° C./5% CO2 for 4 days whereupon the media was removed and 50 μL of ONE-glo luciferase substrate (Promega) was added to each well. The plates were agitated on a rotating platform at room temperature for 3 min and read in a Victor^3V microplate reader (Perkin-Elmer) using a 700 nm cut-off filter with a 1 sec read time. EC50 values were calculated from dose response curves from the resulting best-fit equations determined by Microsoft Excel and XLfit 4.1 software.

In another test the test system is HCV 2b. The experiment in a line: HCV replicon assay, genotype 2b. The settings on record: for IC50: Hepatitis C virus, read-out: 2b IC50 (nM), HCV genotype 2b; for pIC50: read-out: 2b IC50, HCV genotype 2b.
Test [4] deals with HCV genotype 1b Con1 strain subgenomic luciferase replicon. The experiment in a line: HCV replicon assay, genotype 1b. The procedure: as §1

As to `CCC1(CC)c2ccc(-c3cnc([C@H]4CCCN4C(=O)[C@@H](NC(=O)OC)C4CCOCC4)[nH]3)cc2Oc2ccc3cc(-c4cnc([C@H]5CCCN5C(=O)[C@H](NC(=O)OC)C5CCOCC5)[nH]4)ccc3c21` [Compound 16, methyl [(1R)-2-[(2R)-2-{5-[12,12-diethyl-9-(2-{(2R)-1-[(2S)-2-[(methoxycarbonyl)amino]-2-(tetrahydro-2H-pyran-4-yl)acetyl]pyrrolidin-2-yl}-1H-imidazol-5-yl)-12H-benzo[a]xanthen-3-yl]-1H-imidazol-2-yl}pyrrolidin-1-yl]-2-oxo-1-(tetrahydro-2H-pyran-4-yl)ethyl]carbamate], the IC50 in test [1] was 0.0036 nM; in test [2], 0.015 nM; in test [3], 0.072 nM; in the test on HCV 2b, 0.032 nM. Further, the negative logarithm of the IC50 (pIC50) in test [4] (Hepatitis C virus) is 11.36.
Take `COC(=O)N[C@H](C(=O)N1CCC[C@H]1c1ncc(-c2ccc3c(c2)Oc2ccc4cc(-c5cnc([C@@H]6CCCN6C(=O)[C@@H](NC(=O)OC)C(C)C)[nH]5)ccc4c2C3C)[nH]1)C(C)C` (single isomer, unassigned) [Compound 3]: the pIC50 is 11.66 in test [1]; 9.14 in test [2]; 8.15 in test [3]; 8.71 with HCV 2b; 11.80 in test [4].
For the compound `COC(=O)N[C@H](C(=O)N1CCC[C@H]1c1ncc(-c2ccc3c(c2)Oc2ccc4cc(-c5cnc([C@@H]6CCCN6C(=O)[C@@H](NC(=O)OC)C6CCOCC6)[nH]5)ccc4c2C3(C)C)[nH]1)C1CCOCC1` [Compound 13, dimethyl [(12,12-dimethyl-12H-benzo[a]xanthene-3,9-diyl)bis{1H-imidazole-5,2-diyl(2S)pyrrolidine-2,1-diyl[(1S)-2-oxo-1-(tetrahydro-2H-pyran-4-yl)ethane-2,1-diyl]}]biscarbamate], the IC50 in test [1] is 0.0023 nM; in test [2], 0.084 nM; in test [3], 0.682 nM; in the test with HCV 2b, 0.254 nM. Moreover, the negative logarithm of the IC50 (pIC50) in test [4] (Hepatitis C virus) is 11.40.
On the same counts, the results for `CCC1(CC)c2ccc(-c3cnc([C@@H]4CCCN4C(=O)[C@H](NC(=O)OC)C4CCOCC4)[nH]3)cc2Oc2cc3ccc(-c4cnc([C@@H]5CCCN5C(=O)[C@@H](NC(=O)OC)C5CCOCC5)[nH]4)cc3cc21` [Compound 17, methyl [(1R)-2-[(2S)-2-{5-[12,12-diethyl-9-(2-{(2S)-1-[(2S)-2-[(methoxycarbonyl)amino]-2-(tetrahydro-2H-pyran-4-yl)acetyl]pyrrolidin-2-yl}-1H-imidazol-5-yl)-12H-benzo[b]xanthen-3-yl]-1H-imidazol-2-yl}pyrrolidin-1-yl]-2-oxo-1-(tetrahydro-2H-pyran-4-yl)ethyl]carbamate] are 0.0034 nM, 0.055 nM, 0.046 nM, 0.028 nM and 10.52.
On the same counts, the results for `COC(=O)N[C@H](C(=O)N1C[C@H](F)C[C@H]1c1ncc(-c2ccc3c(ccc4oc5ccc(-c6cnc([C@@H]7C[C@@H](F)CN7C(=O)[C@@H](NC(=O)OC)C(C)C)[nH]6)cc5c(=O)c43)c2)[nH]1)C(C)C` [Compound 27, methyl [(1S)-1-({(2S,4R)-4-fluoro-2-[5-(10-{2-[(2S,4R)-4-fluoro-1-{(2S)-2-[(methoxycarbonyl)amino]-3-methylbutanoyl}pyrrolidin-2-yl]-1H-imidazol-5-yl}-12-oxo-12H-benzo[a]xanthen-3-yl)-1H-imidazol-2-yl]pyrrolidin-1-yl}carbonyl)-2-methylpropyl]carbamate] are no less than 1 nM, no less than 1 nM, 96.6 nM, no less than 100 nM and 9.23.
On the same counts, the results for `COC(=O)N[C@H](C(=O)N1CCC[C@H]1c1ncc(-c2ccc3c(F)c4oc5ccc(-c6cnc([C@@H]7CCCN7C(=O)[C@@H](NC(=O)OC)C(C)C)[nH]6)cc5c(=O)c4cc3c2)[nH]1)C(C)C` [Compound 26, methyl [(1S)-1-({(2S)-2-[5-(6-fluoro-9-{2-[(2S)-1-{(2S)-2-[(methoxycarbonyl)amino]-3-methylbutanoyl}pyrrolidin-2-yl]-1H-imidazol-5-yl}-12-oxo-12H-benzo[b]xanthen-2-yl)-1H-imidazol-2-yl]pyrrolidin-1-yl}carbonyl)-2-methylpropyl]carbamate] are no less than 1 nM, no less than 1 nM, no less than 100 nM, no less than 100 nM and 9.00.
For `COC(=O)N[C@H](C(=O)N1CCC[C@H]1c1ncc(-c2ccc3c(c2)Oc2ccc4cc(-c5cnc([C@@H]6CCCN6C(=O)[C@@H](NC(=O)OC)C6CCOCC6)[nH]5)ccc4c2C3C)[nH]1)C1CCOCC1` (single isomer, unassigned) [Compound 12], the pIC50 is 11.35 in test [1]; 10.26 in test [2]; 9.26 in test [3]; 9.31 with HCV 2b; 11.25 in test [4].
On to `COC(=O)N[C@H](C(=O)N1CCC[C@H]1c1ncc(-c2ccc3c(c2)Oc2ccc4cc(-c5cnc([C@@H]6CCCN6C(=O)[C@@H](NC(=O)OC)C6CCOCC6)[nH]5)ccc4c2C3C)[nH]1)C1CCOCC1` (single isomer, unassigned) [Compound 11], for which the IC50 was 0.0037 nM in test [1], 0.038 nM in test [2] and 0.391 nM in test [3]. Also, the pIC50 in the test on HCV 2b was 10.80; in test [4] (Hepatitis C virus), 11.36.
As to `COC(=O)N[C@H](C(=O)N1CCC[C@H]1c1ncc(-c2ccc3c(c2)Oc2ccc4cc(-c5cnc([C@@H]6CCCN6C(=O)[C@@H](NC(=O)OC)C(C)C)[nH]5)ccc4c2C3C)[nH]1)C(C)C` (single isomer, unassigned) [Compound 2], the negative logarithm of the IC50 (pIC50) was 11.34 in test [1], 7.43 with HCV 2b and 11.44 in test [4]. For the same compound, the IC50 was found to be 1.38 nM in test [2] and 10.6 nM in test [3].
